Data as given in patent US20150284689A1, “STRATEGY FOR ENGINEERING VARIOUS 3D TISSUES, ORGANOIDS AND VASCULATURE” (THE REGENTS OF THE UNIVERSITY OF CALIFORNIA, priority 2012, published 2015).

B1: FGF7: fibroblast growth factor-7 (protein, UniProt P21781 32-194, looked up)
Fibroblast growth factor 7: CNDMTPEQMATNVNCSSPERHTRSYDYMEGGDIRVRRLFCRTQWYLRIDKRGKVKGTQEMKNNYNIMEIRTVAVGIVAIKGVESEFYLAMNKEGKLYAKKECNEDCNFKELILENHYNTYASAKWTHNGGEMFVALNQKGIPVRGKKTKKEQKTAHFLPMAIT
B2: pleiotrophin: polypeptide in active morphogenetic fraction of BSN-CM; fibroblast proliferative and neurite outgrowth-promoting factor (protein, UniProt P21246 33-168, looked up)
Pleiotrophin: GKKEKPEKKVKKSDCGEWQWSVCVPTSGDCGLGTREGTRTGAECKQTMKTQRCKIPCNWKKQFGAECKYQFQAWGECDLNTALKTRTGSLKRALHNAECQKTVTISKPCGKLTKPKPQAESKKKKKEGKKQEKMLD

Experiments:
[1] = test system: isolated ureteric bud, Wolffian duct bud; assay: isolated ureteric bud / Wolffian duct culture in biocompatible matrix, branching morphogenesis; format: cell-based; conditions: isolated UB/WD separated from MM, in Matrigel/collagen gel
Excerpt: This isolated cell culture system can serve as a powerful assay system since it directly assesses the effect of soluble factors on cell morphogenesis and tubulogenesis.
As discussed herein, the disclosure provides methods and compositions whereby isolated budding epethelia (e.g., UBs, WDs, or UBs and WDs) can be co-cultured and stimulated by extrinsic factors to induce branching. These branching buds can then be combined with a tissue specific mesenchymal cell population to develop a desired tissue (e.g., combined with metanephric mesenchyme to produce kidney tissue). For example, whole isolated intact UB, WD, or UB and ND (cleanly separated from surrounding MM) can be induced to undergo branching morphogenesis in vitro in a manner similar to UB, WD, or UB and WD culture. Suspension of the isolated UBs, WDs, or UBs and WDs within, or on, a natural or artificial biocompatible substrate (e.g., Matrigel/collagen gel) and when exposed to a mixture of mesenchyme-cultured media augmented with GDNF, results in the isolated unbranched UB, WD, or UB and WD rapidly forming a polarized, extensively branched structure with an internal lumen. […] This modulation is typically branch-promoting, elongation promoting, or branch-inhibiting.
The culture system and methods of the disclosure provide toe ability to propagate the isolated UB, WD, or UB and WD in vitro through several generations. For example, isolated stem cells, UB, WD, or any combination thereof are cultured in vitro and induced to undergo branching morphogenesis in the presence of BSN-CM or pleiotrophin and GDNF or pleiotrphin, FGF1, and GDNF. After 8 days, the cultured bud is subdivided into approximate 3rds and re-suspended within a suitable biocompatible matrix (matrigel/collagen gel). This 2nd generation bud is further subdivided after another 8 days of culture and the 3rd generation bud is cultured for 8 days (thus yielding at least 9 subdivided buds from one progenitor bud) (e.g., see FIG. 9A-B). These subsequent clonal generations of cultured UB, WD, or UB and WD retain the ability of the progenitor bud to induce mesenchyme upon in vitro recombination. The buds also retained the capacity to form cohesive conduits with the mesenchymally-derived tubules that they induced. Thus, the disclosure provides the ability to develop and propagate a clonal, expanded, and long-lived colony of ureteric bud, Wolffian duct bud, or ureteric and Wolffian duct buds, derived from a single progenitor bud that retains the properties of the progenitor. Using similar techniques with the MM, it is possible to develop colonies of mesenchyme derived from a single progenitor mesenchyme that can then be recombined with a propagated UB, WD, or UB and WD.

[2] = test system: cultured mesenchyme; assay: cultured isolated mesenchyme, induction/differentiation; format: cell-based; conditions: isolated mesenchyme cultured in vitro
[3] = test system: MDCK and mIMCD cells; conditions: three-dimensional cultures of MDCK and mIMCD cells; cited from earlier work

Molecule	effect on branching morphogenesis of isolated UB, WD [1]	further results
FGF1: fibroblast growth factor-1	induced the formation of elongated stern cells, UB, ND, or any combination thereof branching stalks	–
Endostatin	selectively inhibits branching of the UB, WD, or UB and WD	–
LIF: leukemia-inhibitory factor, isolated from UB, WD conditioned media	–	effect on cultured mesenchyme (mesenchymal-to-epithelial transformation, survival, differentiation) [2]: induce mesenchymal-to-epithelial transformation of cultured mesenchyme
FGF2: growth factor present in UB/WD conditioned media	–	effect on cultured mesenchyme (mesenchymal-to-epithelial transformation, survival, differentiation) [2]: appear to promote survival but not differentiation of mesenchyme
HGF: Hepatocyte growth factor	–	formation of branching tubular structures with lumens [3]: induce the formation of branching tubular structures with lumens
B1	induced amorphous buds displaying nonselective proliferation with little distinction between stalks and ampullae	–
B2	induces branching morphogenesis of the whole ureteric bud, Wolffian duct bud, or ureteric and Wolffian duct bud	–
